Source: the supplement of paper PMC10307832

Assays:
Assay in all cases: relative viability (nuclei count vs DMSO), 5 days (fraction); higher = more cells survive
NPK76-II-72-1 + AZD7762 = compound: CC1CC(=O)N(C2=CN=C(N=C2N1C3CCCC3)NC4=C(C=C(C=C4)C(=O)NC5CCN(CC5)C)OC)C [NPK76-II-72-1] + NC(=O)Nc1cc(-c2cccc(F)c2)sc1C(=O)N[C@H]1CCCNC1 [AZD7762] (partner 0.2 µM)
Outline: (§1)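 After 5 days of treatment, lung cancer cells in 1536-well plates were fixed and stained in a single step (final 0.05% Triton X-100, 1% formaldehyde, 1 ug/ml Hoechst) and their nuclei counted on 4× images. Treatment had been applied by pin tool the day after seeding as one drug alone or as a fixed anchor-drug dose with five library-drug doses (not always all listed) in √10 steps. Relative viability is the nuclei count of treated wells divided by that of vehicle wells, and values are medians of duplicate plates.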

[1] = compound: CC1CC(=O)N(C2=CN=C(N=C2N1C3CCCC3)NC4=C(C=C(C=C4)C(=O)NC5CCN(CC5)C)OC)C [NPK76-II-72-1] + Cc1cc(Nc2cc(N3CCN(C)CC3)nc(Sc3ccc(NC(=O)C4CC4)cc3)n2)n[nH]1 [Tozasertib] (partner 0.1 µM)
Outline: as §1

[2] = compound: CC1CC(=O)N(C2=CN=C(N=C2N1C3CCCC3)NC4=C(C=C(C=C4)C(=O)NC5CCN(CC5)C)OC)C [NPK76-II-72-1] + Nc1nc2[nH]cc(CCc3ccc(C(=O)N[C@@H](CCC(=O)O)C(=O)O)cc3)c2c(=O)[nH]1 [Pemetrexed] (partner 0.2 µM)
Outline: as §1

BI-2536 + Phenformin = compound: CC[C@@H]1C(=O)N(C)c2cnc(Nc3ccc(C(=O)NC4CCN(C)CC4)cc3OC)nc2N1C1CCCC1 [BI-2536] + N=C(N)NC(=N)NCCc1ccccc1 [Phenformin] (partner 250 µM)
Outline: as §1

| Cell Line | relative viability (NPK76-II-72-1 + AZD7762; first compound 0.01 µM) | relative viability (NPK76-II-72-1 + AZD7762; first compound 0.03162 µM) | relative viability (NPK76-II-72-1 + AZD7762; first compound 0.1 µM) | relative viability (NPK76-II-72-1 + AZD7762; first compound 0.3162 µM) | relative viability (NPK76-II-72-1 + AZD7762; first compound 1 µM) | relative viability ([1]; first compound 0.01 µM) | relative viability ([1]; first compound 0.03162 µM) | relative viability ([1]; first compound 0.1 µM) | relative viability ([1]; first compound 0.3162 µM) | relative viability ([1]; first compound 1 µM) | relative viability ([2]; first compound 0.01 µM) | relative viability ([2]; first compound 0.03162 µM) | relative viability ([2]; first compound 0.1 µM) | relative viability ([2]; first compound 0.3162 µM) | relative viability ([2]; first compound 1 µM) | relative viability (BI-2536 + Phenformin; first compound 0.01 µM) | relative viability (BI-2536 + Phenformin; first compound 0.03162 µM) | relative viability (BI-2536 + Phenformin; first compound 0.1 µM) | relative viability (BI-2536 + Phenformin; first compound 0.3162 µM) | relative viability (BI-2536 + Phenformin; first compound 1 µM) |
| --- | --- | --- | --- | --- | --- | --- | --- | --- | --- | --- | --- | --- | --- | --- | --- | --- | --- | --- | --- | --- |
| HCC-366 | 0.233 | 0.388 | 0.375 | 0.246 | 0.468 | 0.204 | 0.156 | 0.111 | 0.118 | 0.169 | 0.127 | 0.149 | 0.132 | 0.138 | 0.143 | 0.67 | 0.605 | 0.256 | 0.0215 | 0.0251 |
| HCC-827 | 0.2 | 0.203 | 0.243 | 0.129 | 0.259 | 0.399 | 0.416 | 0.417 | 0.409 | 0.476 | 0.293 | 0.275 | 0.302 | 0.264 | 0.278 | 0.421 | 0.377 | 0.43 | 0.241 | 0.157 |
| HOP-62 | 0.405 | 0.507 | 0.556 | 0.444 | 0.514 | 0.333 | 0.382 | 0.397 | 0.328 | 0.413 | 0.291 | 0.374 | 0.296 | 0.245 | 0.32 | 0.7 | 0.654 | 0.43 | 0.141 | 0.141 |
| LC-2-ad | 0.833 | 0.855 | 0.852 | 0.879 | 0.895 | 0.469 | 0.491 | 0.436 | 0.404 | 0.493 | 0.24 | 0.281 | 0.269 | 0.266 | 0.272 | 0.609 | 0.545 | 0.257 | 0.203 | 0.292 |
| LCLC-97TM1 | 0.298 | 0.404 | 0.27 | – | 0.298 | 0.177 | 0.31 | 0.215 | 0.188 | 0.228 | 0.178 | 0.196 | 0.164 | 0.158 | 0.155 | 0.43 | 0.432 | 0.366 | 0.137 | 0.154 |
| LCLC-103H | – | 0.851 | 0.789 | 0.852 | 0.745 | 0.46 | 0.508 | 0.437 | 0.466 | 0.488 | – | 0.441 | 0.425 | 0.472 | 0.442 | 0.306 | 0.338 | 0.295 | 0.152 | 0.143 |
| NCI-H520 | – | – | – | – | – | 0.36 | 0.437 | 0.429 | 0.423 | 0.487 | 0.575 | 0.741 | 0.427 | 0.65 | 0.825 | 0.572 | 0.408 | 0.218 | 0.255 | 0.281 |
| NCI-H661 | – | – | – | – | – | 0.351 | 0.351 | 0.35 | 0.386 | 0.36 | 0.953 | 0.907 | 0.893 | 0.902 | 0.954 | 0.263 | 0.224 | 0.216 | 0.198 | 0.206 |
| NCI-H727 | 0.466 | 0.67 | 0.545 | 0.537 | 0.558 | 0.641 | 0.616 | 0.545 | 0.539 | 0.649 | – | – | – | – | – | 0.529 | 0.527 | 0.386 | 0.319 | 0.313 |
